These results are taken from US20150290232A1, “DRUG COMPOSITION FOR TREATING TUMORS AND APPLICATION THEREOF” (priority 2012, published 2015).

Data set [1] relates to A549 transplanted tumor (human non-small cell lung cancer cell line). Put plainly: Example 5: Acla A on A549 transplanted tumor in nude mice. Format: in vivo, BALB/c-nu nude mice. The settings on record: A549, Jef 50 mg/kg/time intragastric, 2 times a day, 14 days, Day 20. The method, then: Under sterile conditions, the above tumor cells were collected in the logarithmic growth phase. A549 was injected by subcutaneous injection in an amount of 6×10 6/0.2 mL/nude mice (cell viability>90%) into the right subaxillary of the nude mice, thus establishing transplated tumor models of lung cancer in nude mice. The mice were administered from the second day after the inoculation. The experimental group was intragastrically administered at the experimentally designed amount, the negative control group was intragastrically administered with sterile water, and the positive control group is intragastrically administered with Jef. Each mouse was intragastrically administered in 0.4 ml each time and 2 times a day, at 8:00, and 14:00. The administrations were successive for 14 days. The day before administration was deemed as Day 0 and the body weight and tumor size of the mice were determined every 5 days to produce a dynamic plot on body weight and tumor growth. On Day 20, the mice were sacrificed and the tumors were taken out and weighed. The tumor inhibition rate (%) was calculated after the effect of the medicament based on a tumor inhibition rate of the control group being zero.
(§1) The values determined were presented as mean±standard error (Mean±SD). The experimental data for each group was analyzed with One-way ANOVA method in the SPSS 18.0 statistical software, and p<0.05 means that the differences are statistically significant.

Data set [2] shares this test system. Briefly: Example 6: TTD and Acla A combined on A549 transplanted tumor in nude mice. Format: in vivo, BALB/c-nu nude mice. Conditions: A549, Jef 50 mg/kg/time intragastric, 3 times a day, 10 days, Day 29. The method, then:
(§2) Under sterile conditions, the above tumor cells were collected in the logarithmic growth phase. A549 was injected by subcutaneous injection in an amount of 1×10 7/0.2 mL/nude mice (cell viability>90%) into the right subaxillary of the nude mice, whereas HepG2 was injected by subcutaneous injection in an amount of 1×10 7/0 2 mL/nude mice (cell viability>90%) into the left subaxillary of the nude mice, thus establishing transplated tumor models of lung cancer and liver cancer respectively in nude mice. The mice were administered from the second day after the inoculation. […] Each mouse was intragastrically administered in 0.4 ml each time and 3 times a day, at 8:00, 14:00 and 20:00. The administrations were successive for 10 days. The day before administration was deemed as Day 0 and the body weight and tumor size of the mice were determined every 5 days to produce a dynamic plot on body weight and tumor growth. On Day 29, the mice were sacrificed and the tumors were taken out and weighed. The tumor inhibition rate (%) was calculated after the effect of the medicament based on a tumor inhibition rate of the control group being zero.
as §1

Data set [3] concerns Hep G2 transplanted tumor (human hepatoma carcinoma cell). Put plainly: Example 6: TTD and Acla A combined on Hep G2 transplanted tumor in nude mice. Format: in vivo, BALB/c-nu nude mice. The settings on record: Hep G2, Jef 50 mg/kg/time intragastric, 3 times a day, 10 days, Day 29. Here is the method: as §2, §1
Data set [4] has as its system human leukemia Jurkat cells. The settings on record: cited from earlier work.
Data set [5] concerns peripheral blood leucocyte of a normal human being. Conditions: berbamine 0.5 μg/mL to 10 μg/mL; cited from earlier work.

Like-named read-outs stand apart in the source and are kept apart here.

For orientation: cell viability means a read-out of living cells in per cent, often relative to untreated cells.

Take `COc1cc2ncnc(Nc3ccc(F)c(Cl)c3)c2cc1OCCCN1CCOCC1` [Jef, Jefitinib]: the Mass of tumor worked out at 0.38 ± 0.37 g in data set [1] (Mean ± SD), 1.52 ± 1.00 g in data set [2] (Mean ± SD) and 0.31 ± 0.10 g in data set [3] (Mean ± SD). Besides, the tumor inhibition rate in data set [1] (control = 0) is recorded as −14.34%; in data set [2] (control = 0), −34.11%; in data set [3] (control = 0, * P < 0.05), 54.08* %.
With `COc1cc2c3cc1Oc1c(OC)c(OC)cc4c1[C@@H](Cc1ccc(O)c(c1)Oc1ccc(cc1)C[C@@H]3N(C)CC2)N(C)CC4` [berbamine, 6,6′,7-trimethoxy-2,2′-dimethylberbaman-12-ol], the cell viability in data set [4] (berbamine 0.5 μg/mL) was 93.69%; in data set [4] (berbamine 10 μg/mL), 14.85%. Moreover, the “cytotoxic effect (in words)” value in data set [5] is recorded as “no evident cytotoxic effect”.
